According to patent US9802960B2 (MILLENNIUM PHARMACEUTICALS, INC., priority 2014, dated 2017):
Read-outs that look alike come from different tables or passages of the source.

Tests used:
PC9 cell line = assay: Cellular assay for anti-proliferative activity in combination with a second therapeutic agent (Cell Titer Glo), PC9; assay type: cell-based, human; conditions: in combination with AZD9291, call from Combination Index
Procedure: Cells were plated in […] of media in 384 well plates at 1,000 cells per well (A431, PC9, and NCI-H1650 cell lines), 1,500 cells per well (NCI-H1975) or 2,000 cells per well ([…]). The plates were incubated for 24 hrs at 37° C., 6% CO2. The test compounds (see Table 38 below) were diluted serially, and 62.5 nL of each compound solution (or DMSO, if it is a single agent experiment) is added so the total added to the cells is 125 nL. Cell plates were incubated for 72 hrs at 37° C., 6% CO2. Cell Titer Glo reagent (Promega) was added. The plates were then incubated for 10 minutes at room temperature before luminescence was read on a plate reader such as the Pherastar Plus, Pherastar FS, or LEADSeeker imaging system.
Bliss antagonism was defined similarly.
Bliss dependence was defined as the percent cell survival at a certain dose combination divided by the percent cell survival predicted by Bliss independence. More specifically, the Bliss dependence is vAB/(vA*vB), where vAB is the viability with drug A and drug B added, while vA and vB are the viabilities with each drug alone. […]
Another way to evaluate additivity is through consideration of Loewe additivity. […] For Bliss independence, the boundary between additivity and synergy must be measured. […]
Synergy can also be measured by nonlinear blending synergy. […]

Human VPS34 = Human VPS34 (Homo sapiens (Human), UniProt Q8NEB9); assay: Human VPS34 enzyme assay (Adapta TR-FRET); assay type: biochemical; conditions: read-out: Percent Inhibition
Human VPS34, sequence (Q8NEB9 whole entry): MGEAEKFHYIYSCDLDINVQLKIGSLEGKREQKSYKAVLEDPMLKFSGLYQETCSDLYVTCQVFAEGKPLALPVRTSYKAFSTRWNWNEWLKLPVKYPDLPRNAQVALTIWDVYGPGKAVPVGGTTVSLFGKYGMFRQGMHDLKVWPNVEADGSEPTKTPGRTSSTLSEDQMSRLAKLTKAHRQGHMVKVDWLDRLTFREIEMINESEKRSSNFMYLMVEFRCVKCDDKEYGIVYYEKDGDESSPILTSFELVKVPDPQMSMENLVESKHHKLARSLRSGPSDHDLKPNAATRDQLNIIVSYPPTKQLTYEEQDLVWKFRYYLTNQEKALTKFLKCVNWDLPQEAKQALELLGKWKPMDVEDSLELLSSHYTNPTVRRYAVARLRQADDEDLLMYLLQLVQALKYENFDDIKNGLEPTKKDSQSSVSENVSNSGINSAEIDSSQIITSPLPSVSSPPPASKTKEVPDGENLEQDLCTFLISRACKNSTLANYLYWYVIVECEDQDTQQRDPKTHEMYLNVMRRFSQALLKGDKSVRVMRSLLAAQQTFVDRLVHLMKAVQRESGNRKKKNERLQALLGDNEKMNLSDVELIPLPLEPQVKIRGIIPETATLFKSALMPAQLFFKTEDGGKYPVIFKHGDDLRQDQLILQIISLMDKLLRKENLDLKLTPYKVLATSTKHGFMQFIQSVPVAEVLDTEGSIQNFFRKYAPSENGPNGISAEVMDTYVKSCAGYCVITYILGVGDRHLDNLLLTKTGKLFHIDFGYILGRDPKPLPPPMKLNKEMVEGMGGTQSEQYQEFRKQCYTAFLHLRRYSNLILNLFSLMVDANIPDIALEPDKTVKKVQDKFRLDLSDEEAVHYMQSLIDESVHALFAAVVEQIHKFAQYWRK

For `Cc1c(-c2ccnc(NC(=O)C3CC3)c2)cnc(Cl)c1NS(=O)(=O)c1ccc(F)cc1F` [Compound I-308, N-(6-chloro-5-{[(2,4-difluorophenyl)sulfonyl]amino}-4-methyl-3,4′-bipyridin-2′-yl)cyclopropane carboxamide], the Meaning (PC9 cell line) was “SubAdditivity” and the inhibition at 1.11 µM (Human VPS34; compound concentration 1.11 μM) was greater than 99%.

Molecule `CC(=O)Nc1cc(-c2cnc(N)c(S(=O)(=O)N(C)C)c2)c(F)cn1` [Compound I-186] has an inhibition at 1.11 µM (Human VPS34) greater than 99%.

For `CC(=O)Nc1cc(-c2cncc(S(=O)(=O)Nc3ccc(F)cc3F)c2)ccn1` [Compound I-464, N-{5-[(2,4-difluorophenyl)sulfamoyl]-3,4′-bipyridin-2′-yl}acetamide], the inhibition at 1.11 µM (Human VPS34; compound concentration 1.11 μM) was greater than 99%.

In the case of `Cc1nccc(Nc2cc(-c3cnc(C)c(C(=O)N4CC(F)(F)C4)c3)ccn2)n1` [Compound I-221, (3,3-difluoroazetidin-1-yl){6-methyl-2′-[(2-methylpyrimidin-4-yl)amino]-3,4′-bipyridin-5-yl}methanone], the inhibition at 1.11 µM (Human VPS34; compound concentration 1.11 μM) is reported as 97%.

`Cc1nccc(Nc2cc(-c3cnc(C)c(C(=O)N(C)C)c3)ccn2)n1` [Compound I-266, N,N,6-trimethyl-2′-[(2-methylpyrimidin-4-yl)amino]-3,4′-bipyridine-5-carboxamide] was tested, and the inhibition at 1.11 µM (Human VPS34; compound concentration 1.11 μM) was 100%.

For `Cc1nccc(Nc2cc(-c3cnc(C)c(C(=S)N4CCC4)c3)ccn2)n1` [Compound I-223, Azetidin-1-yl{6-methyl-2′-[(2-methylpyrimidin-4-yl)amino]-3,4′-bipyridin-5-yl}methanethione], the inhibition at 1.11 µM (Human VPS34; compound concentration 1.11 μM) was 95%.

With `CC(=O)Nc1cc(-c2cnc(N)c(N3CCCC3=O)c2)ccn1` [Compound I-337, N-[6-amino-5-(2-oxopyrrolidin-1-yl)-3,4′-bipyridin-2′-yl]acetamide] the inhibition at 1.11 µM (Human VPS34; compound concentration 1.11 μM) was 52%.
